Here are results for one compound from patent US20220282325A1, “METHYLATION ASSAYS AND USES THEREOF” (The General Hospital Corporation, priority 2019, published 2022).

One assay has as its system OCI-AML3 cells. Put plainly: XRBS DNA methylation profiling of decitabine-treated cells. Format: cell-based, human. The note with it: OCI-AML3, 300 nM decitabine, five days, vs DMSO. The procedure: (§1) In order to detect differential methylation across an isogenic system, cell lines were treated with 300 nM decitabine, which inhibits DNA methyltransferase enzymes through covalent entrapment on DNA (FIGS. 22A and 22B). HL-60 and OCI-AML3 were treated, as these had intermediate global methylation levels among the four cell lines examined, and profiled DNA methylation using expanded representation bisulfite sequencing (XRBS) (FIG. 22C).
(§2) For expanded representation bisulfite sequencing (XRBS) profiles, HL-60 and OCI-AML3 cells were treated with 300 nM decitabine in 6 well plates. Cells were harvested after 5 days and gDNA was extracted using Qiagen DNA Mini Blood Kit (51104). 10 ng of gDNA were used for each library preparation.
(§3) Before alignment, primer dimers were filtered using Cutadapt version 2.7 and the following parameters:--discard -a GCTCTTCCGATCT. Short read pairs were trimmed using TrimGalore version 0.6.5 and the following parameters: --paired --illumina --nextseq 20. Trimmed sequencing reads were then aligned to an in-silico bisulfate-converted reference genome (hg38 and mm10) using methylCtools version 1.0.0 and bwa mem version 0.7.17. […] Putative PCR duplicates were removed by considering the outer mapping position of both paired-end reads, as well as the random hexamer sequence that was trimmed prior to alignment and functioned as a unique molecular identifier (UMI). For library complexity analysis, alignments were downsampled prior to this step. DNA methylation calling was performed using methylCtools bcall and the --trimPE parameter. DNA methylation values, which are incorporated herein by reference for all purposes, were deposited on GEO (GSE149954, token: azujmeaezxqdxgr).
(§4) All downstream analyses were performed in R (version 3.6.2), making extensive use of the data.table and GenomicRanges packages. For many analyses, average DNA methylation values within genomic regions were used. Regions included CpG islands, promoters (1 kb up- and downstream of all transcription start sites of protein-coding genes), enhancers and CTCF binding sites (Encyclopedia of DNA Elements (ENCODE) narrowPeak files), and genomic 100 kb-windows. Average methylation values within these regions were calculated by summarizing calls for methylated and unmethylated CpGs across the entire region, and then calculating a single beta-value. For 100 kb-windows, CpGs within islands were not included. Minimum coverage thresholds were applied as indicated. Similarly, average methylation values were calculated for each genomic bin when visualized as heatmaps (genomic regions were separated in 100 equally-sized bins). Differential DNA methylation analysis was performed by sorting regions according to their difference in average methylation values (for enhancers and CTCF binding sites) or by applying a threshold (0.5) on the difference between the average methylation values of one cell line to the average of the other three cell lines (for promoters).

The next assay deals with HL-60 cells. The assay is described as above. The note with it: HL-60, 300 nM decitabine, five days. Format: cell-based, human. The procedure:
as §1, §2, §3, §4

As to `Nc1ncn([C@H]2C[C@H](O)[C@@H](CO)O2)c(=O)n1` [decitabine], in the assay on OCI-AML3 cells, the “decrease of DNA methylation levels in CpG islands” value is listed as 11.2%, the “decrease of DNA methylation levels in non-island CpGs” value turned out to be 14.0% and the “reduction of average global methylation levels” value is given as 13.7%. In addition, in the assay on HL-60 cells (vs DMSO), the “decrease of DNA methylation levels in CpG islands” value worked out at 9.5%, the “decrease of DNA methylation levels in non-island CpGs” value stood at 20.2% and the “reduction of average global methylation levels” value worked out at 19.1%. Also, the “average methylation of non-island CpGs after decitabine treatment” value in the assay with HL-60 cells (DMSO control 68.1%) worked out at 54.3%.
